PMC2747801 (European journal of pharmaceutical sciences : official …, 2009)
Like-named read-outs stand apart in the source and are kept apart here.

What was measured:
[1] = male, mouse, pH 7.4; for logPS(obs): in vivo
[2] = cited from earlier work
[3] = rat, cited from earlier work
[4] = mouse, cited from earlier work
[5] = PAMPA intrinsic permeability, ref Ruell et al. 2004
[6] = 5-50uM self-inhibition, training set ref Summerfield et al. 2007
[7] = not saturable ref Parepally et al. 2006
[8] = 5-50uM self-inhibition, test set ref Summerfield et al. 2007
[9] = Kd (nonsaturable component) ref Momma et al. 1987
[10] = Kd (nonsaturable component) ref Smith et al. 1986
[11] = test set ref Gratton et al. 1997
[12] = PSC833,GF120918 ref Youdim et al. 2004

With CC(C)c1nc(CN(C)C(=O)N[C@H](C(=O)N[C@@H](Cc2ccccc2)C[C@H](O)[C@H](Cc2ccccc2)NC(=O)OCc2cncs2)C(C)C)cs1 [ritonavir] the “logPS(obs)” value [1] was −2.59 mL/g/s, the “Pgp Mutant Kin” value [1] was 15 mL/100g/min and the “logPo^PAMPA” value was −1.68.

For CNCCCC12CCC(c3ccccc31)c1ccccc12 [maprotiline], the “logPo^PAMPA” value [2, 5] is given as 1.99 and the “logPS(obs)” value [3, 6] is given as −1.37 mL/g/s.

With C[C@]12CC[C@H]3[C@@H](CCC4=CC(=O)CC[C@@]43C)[C@@H]1CC[C@@H]2O [testosterone] the “logPo^PAMPA” value was −2.83.

In the case of COc1cc2nc(N3CCN(C(=O)c4ccco4)CC3)nc(N)c2cc1OC [prazosin], the “logPo^PAMPA” value [2, 5] is listed as −2.58.

In the case of Cc1ncc2n1-c1ccc(Cl)cc1C(c1ccccc1F)=NC2 [midazolam], the “logPS(obs)” value ([3]; in vivo) is listed as −1.17 mL/g/s.

For COc1ccc2c(c1)c(CC(=O)O)c(C)n2C(=O)c1ccc(Cl)cc1 [indomethacin], the “logPo^PAMPA” value ([2]; PAMPA intrinsic permeability, ref Avdeef et al. 2004, Ruell et al. 2004) is given as −1.65 and the “logPS(obs)” value [3, 7] is given as −2.19 mL/g/s.

For CCC1(C)CC(=O)NC1=O (centres unmarked) [ethosuximide], the “logPS(obs)” value [3, 8] is given as −2.47 mL/g/s.

In the case of NC1(C(=O)O)CCCCC1 [1-aminocyclohexanecarboxylic acid], the “logPS(obs)” value ([3]; Kd (nonsaturable component) ref Aoyagi et al. 1988) is given as −4.00 mL/g/s.

In the case of N[C@@H](Cc1ccccc1)C(=O)O [L-phenylalanine], the “logPS(obs)” value [3, 9] is given as −3.74 mL/g/s and the “logPo^PAMPA” value is given as −5.36.

For CCC12CCN(CC3(O)CC3)C(Cc3ccc(O)cc31)C2(C)C (centres unmarked) [bremazocine], the “logPS(obs)” value ([4]; in vivo) is given as −1.89 mL/g/s and the “logPo^PAMPA” value is given as −1.49.

For CN1CCN(CCCN2c3ccccc3Sc3ccc(C(F)(F)F)cc32)CC1 [trifluoperazine], the “logPS(obs)” value [3, 8] is given as −1.88 mL/g/s.

In the case of Nc1c(O)cccc1C(=O)CC(N)C(=O)O (centres unmarked) [3-hydroxykynurenine], the “logPS(obs)” value ([3]; Kd (nonsaturable component) ref Fukui et al. 1991) is listed as −4.49 mL/g/s.

In the case of OCCOCCN1CCN(C2=Nc3ccccc3Sc3ccccc32)CC1 [quetiapine], the “logPS(obs)” value [3, 6] is given as −1.33 mL/g/s and the “logPo^PAMPA” value is given as −1.85.

For CCC(=O)C(CC(C)N(C)C)(c1ccccc1)c1ccccc1 (centres unmarked) [methadone], the “logPo^PAMPA” value was 0.08.

For CC(C)C[C@H](N)C(=O)O [L-leucine], the “logPS(obs)” value [3, 10] is listed as −4.08 mL/g/s.

For CN1CCCCC1CCN1c2ccccc2Sc2ccc([S+](C)[O-])cc21 (centres unmarked) [mesoridazine], the “logPS(obs)” value [3, 8] is listed as −1.81 mL/g/s.

For CC(C)[C@H](N)C(=O)O [L-valine], the “logPS(obs)” value [3, 10] is listed as −4.41 mL/g/s.

In the case of CC(=O)CC(c1ccccc1)c1c(O)c2ccccc2oc1=O (centres unmarked) [warfarin], the “logPS(obs)” value ([4]; in vivo) is listed as −2.10 mL/g/s and the “logPS(obs)” value ([3]; in vivo) is listed as −1.99 mL/g/s.

In the case of COc1ccc([C@@H]2Sc3ccccc3N(CCN(C)C)C(=O)[C@@H]2OC(C)=O)cc1 [diltiazem], the “logPo^PAMPA” value ([2]; PAMPA intrinsic permeability, ref Avdeef et al. 2005) is given as −1.33.

For CN1CCN2c3ncccc3Cc3ccccc3C2C1 (centres unmarked) [mirtazapine], the “logPS(obs)” value [3, 8] is listed as −1.39 mL/g/s.

With C[C@]12CC[C@@H]3c4ccc(O)cc4CC[C@H]3[C@@H]1CC[C@@H]2O [estradiol] the “logPo^PAMPA” value was −3.08.

With CN(C)C(=O)C(CCN1CCC(O)(c2ccc(Cl)cc2)CC1)(c1ccccc1)c1ccccc1 [loperamide] the “logPo^PAMPA” value was 0.15.

For Cc1ccsc1C(=CCCN1CCC[C@@H](C(=O)O)C1)c1sccc1C [tiagabine], the “logPS(obs)” value [3, 6] is given as −2.46 mL/g/s.

In the case of CCCN1C[C@H](CSC)C[C@@H]2c3cccc4[nH]cc(c34)C[C@H]21 [pergolide], the “logPS(obs)” value [3, 8] is given as −1.00 mL/g/s.

In the case of OC[C@H]1O[C@@](CO)(O[C@H]2O[C@H](CO)[C@@H](O)[C@H](O)[C@H]2O)[C@@H](O)[C@@H]1O [sucrose], the “logPS(obs)” value [3, 11] is given as −5.30 mL/g/s.

For CSc1ccc2c(c1)N(CCC1CCCCN1C)c1ccccc1S2 (centres unmarked) [thioridazine], the “logPS(obs)” value [3, 6] is given as −1.37 mL/g/s and the “logPo^PAMPA” value is given as 1.81.

In the case of OCCN1CCN(CCCN2c3ccccc3Sc3ccc(Cl)cc32)CC1 [perphenazine], the “logPS(obs)” value [3, 6] is listed as −1.27 mL/g/s and the “logPo^PAMPA” value is listed as 0.81.

In the case of CNCC[C@@H](Oc1ccccc1C)c1ccccc1 [atomoxetine], the “logPS(obs)” value [3, 8] is listed as −1.39 mL/g/s.

In the case of O=C1C[C@@H](c2ccc(O)cc2)Oc2cc(O)cc(O)c21 [naringenin], the “logPS(obs)” value [3, 12] is listed as −2.60 mL/g/s and the “logPo^PAMPA” value is listed as −3.71.

For CCCC(C)(COC(N)=O)COC(N)=O [meprobamate], the “logPS(obs)” value [3, 8] is listed as −3.09 mL/g/s.

For O=c1n(CCCN2CCN(c3cccc(Cl)c3)CC2)nc2ccccn12 [trazodone], the “logPS(obs)” value [3, 8] is listed as −1.47 mL/g/s.

In the case of OCCO [ethylene glycol], the “logPS(obs)” value ([3]; in vivo) is listed as −2.99 mL/g/s.

In the case of Clc1ccc2c(c1)C(N1CCNCC1)=Nc1ccccc1O2 [amoxapine], the “logPS(obs)” value [3, 8] is given as −1.18 mL/g/s.

In the case of CNS(=O)(=O)Cc1ccc2[nH]cc(CCN(C)C)c2c1 [sumatriptan], the “logPo^PAMPA” value ([2]; PAMPA intrinsic permeability, ref Avdeef 2005) is listed as −4.18 and the “logPS(obs)” value [3, 6] is listed as −4.60 mL/g/s.

For Nc1nnc(-c2cccc(Cl)c2Cl)c(N)n1 [lamotrigine], the “logPS(obs)” value [3, 8] is listed as −2.67 mL/g/s.

For Cc1cc(=O)n(-c2ccccc2)n1C [antipyrine], the “logPo^PAMPA” value ([2]; PAMPA) is given as −5.69.

For Nc1ccccc1C(=O)C[C@H](N)C(=O)O [L-kynurenine], the “logPS(obs)” value [3, 9] is given as −4.16 mL/g/s.

In the case of N[C@@H](Cc1ccc(N(CCCl)CCCl)cc1)C(=O)O [melphalin], the “logPS(obs)” value ([3]; in vivo) is given as −3.28 mL/g/s.

For COc1cc([C@@H]2c3cc4c(cc3[C@@H](O[C@@H]3O[C@@H]5CO[C@@H](C)O[C@H]5[C@H](O)[C@H]3O)[C@H]3COC(=O)[C@H]23)OCO4)cc(OC)c1O [etoposide], the “logPS(obs)” value ([4]; mdr1a(−/−), footnote x ref Cisternino et al. 2003) is given as −3.91 mL/g/s and the “logPo^PAMPA” value is given as −5.22.

For Cc1nc2n(c(=O)c1CCN1CCC(c3noc4cc(F)ccc34)CC1)CCCC2 [risperidone], the “logPo^PAMPA” value was −2.01.

In the case of COc1cc2c(c(OC)c1OC)-c1ccc(OC)c(=O)cc1[C@@H](NC(C)=O)CC2 [colchicine], the “logPS(obs)” value ([3]; in vivo) is listed as −3.24 mL/g/s and the “logPo^PAMPA” value is listed as −5.40.

For CCOC(=O)C1(c2ccccc2)CCN(C)CC1 [meperidine], the “logPS(obs)” value ([4]; in vivo) is given as −1.28 mL/g/s and the “logPo^PAMPA” value is given as 0.79.

In the case of OC[C@@H](O)[C@@H](O)[C@H](O)[C@H](O)CO [mannitol], the “logPS(obs)” value [3, 11] is given as −5.01 mL/g/s.

In the case of CN1C[C@H](C(=O)N[C@]2(C)O[C@@]3(O)[C@@H]4CCCN4C(=O)[C@H](Cc4ccccc4)N3C2=O)C=C2c3cccc4[nH]cc(c34)C[C@H]21 [ergotamine], the “logPS(obs)” value ([3]; in vivo) is listed as −2.06 mL/g/s.

For O=C(O)c1ccccc1O [salicylic acid], the “logPo^PAMPA” value ([2]; PAMPA intrinsic permeability, ref Ruell et al. 2003) is listed as −2.64.

For NNCCc1ccccc1 [phenelzine], the “logPS(obs)” value [3, 8] is given as −2.67 mL/g/s.

For NC(N)=S [thiourea], the “logPS(obs)” value [3, 11] is given as −3.36 mL/g/s.

In the case of CC(C)Cc1ccc(C(C)C(=O)O)cc1 (centres unmarked) [ibuprofen], the “logPo^PAMPA” value ([2]; PAMPA intrinsic permeability, ref Ruell et al. 2004, Ruell et al. 2003) is listed as −2.11.

For O=c1[nH]c2ccccc2n1CCCN1CCC(n2c(=O)[nH]c3cc(Cl)ccc32)CC1 [domperidone], the “logPS(obs)” value [1] was −2.79 mL/g/s and the “logPo^PAMPA” value was −2.78.

For O=C(CCCN1CCC(O)(c2ccc(Cl)cc2)CC1)c1ccc(F)cc1 [haloperidol], the “logPo^PAMPA” value ([2]; PAMPA intrinsic permeability, ref Avdeef et al. 2006) is listed as 0.05.

In the case of O=C1Cc2cc(CCN3CCN(c4nsc5ccccc45)CC3)c(Cl)cc2N1 [ziprasidone], the “logPS(obs)” value [3, 8] is given as −1.73 mL/g/s.

In the case of CN(C)CCc1c[nH]c2ccc(Cn3cncn3)cc12 [rizatriptan], the “logPS(obs)” value [3, 8] is listed as −3.76 mL/g/s.

In the case of O=c1c(O)c(-c2ccc(O)c(O)c2)oc2cc(O)cc(O)c12 [quercetin], the “logPS(obs)” value [3, 12] is given as −3.50 mL/g/s and the “logPo^PAMPA” value is given as −4.77.

For COc1ccc(C(CN(C)C)C2(O)CCCCC2)cc1 (centres unmarked) [venlafaxine], the “logPS(obs)” value ([3]; in vivo) is given as −1.98 mL/g/s.

In the case of CN(C)CCC=C1c2ccccc2COc2ccccc21 [doxepin], the “logPo^PAMPA” value [2, 5] is listed as 0.44 and the “logPS(obs)” value [3, 6] is listed as −1.31 mL/g/s.

For OC[C@@H](O)[C@@H](O)CO [erythritol], the “logPS(obs)” value [3, 11] is given as −4.57 mL/g/s.

In the case of CCN(C(C)=O)c1cccc(-c2ccnc3c(C#N)cnn23)c1 [zaleplon], the “logPS(obs)” value ([3]; in vivo) is listed as −2.25 mL/g/s.

For Cc1c(N2C[C@@H](N)C3(CC3)C2)c(F)c(N)c2c(=O)c(C(=O)O)cn(C3CC3)c12 [HSR-903], the “logPS(obs)” value ([3]; 20 mM self-inhibition ref Murata et al. 1999) is given as −3.14 mL/g/s.

With OCCOCCN1CCN(C(c2ccccc2)c2ccc(Cl)cc2)CC1 (centres unmarked) [hydroxyzine] the “logPo^PAMPA” value was −1.50.

In the case of OCCN1CCN(CCCN2c3ccccc3Sc3ccc(C(F)(F)F)cc32)CC1 [fluphenazine], the “logPS(obs)” value [3, 8] is listed as −1.87 mL/g/s.

For CC(C(=O)O)c1ccc(-c2ccccc2)c(F)c1 (centres unmarked) [flurbiprofen], the “logPo^PAMPA” value [2, 5] is listed as −1.78 and the “logPS(obs)” value [3, 7] is listed as −1.80 mL/g/s.
